Experimental data: US10138233B2, “Imidazole compounds as modulators of FSHR and uses thereof” (Merck Patent GmbH, priority 2013, dated 2018)

What follows are compounds tested against T1, FSHR (Homo sapiens, UniProt P23945) (assay: EC50 of cyclic AMP production in CHO FSHR cells + EC20 FSH (Assay A)). Conditions: CHO-FSHR-LUC cells, in presence of EC20 FSH, cAMP HTRF, 1 h 37° C.
T1 construct: expressed in transfected cells; host or cells: CHO cells, clone Cho-FSHR-LUC-1-1-43
T1 sequence (P23945 18-695): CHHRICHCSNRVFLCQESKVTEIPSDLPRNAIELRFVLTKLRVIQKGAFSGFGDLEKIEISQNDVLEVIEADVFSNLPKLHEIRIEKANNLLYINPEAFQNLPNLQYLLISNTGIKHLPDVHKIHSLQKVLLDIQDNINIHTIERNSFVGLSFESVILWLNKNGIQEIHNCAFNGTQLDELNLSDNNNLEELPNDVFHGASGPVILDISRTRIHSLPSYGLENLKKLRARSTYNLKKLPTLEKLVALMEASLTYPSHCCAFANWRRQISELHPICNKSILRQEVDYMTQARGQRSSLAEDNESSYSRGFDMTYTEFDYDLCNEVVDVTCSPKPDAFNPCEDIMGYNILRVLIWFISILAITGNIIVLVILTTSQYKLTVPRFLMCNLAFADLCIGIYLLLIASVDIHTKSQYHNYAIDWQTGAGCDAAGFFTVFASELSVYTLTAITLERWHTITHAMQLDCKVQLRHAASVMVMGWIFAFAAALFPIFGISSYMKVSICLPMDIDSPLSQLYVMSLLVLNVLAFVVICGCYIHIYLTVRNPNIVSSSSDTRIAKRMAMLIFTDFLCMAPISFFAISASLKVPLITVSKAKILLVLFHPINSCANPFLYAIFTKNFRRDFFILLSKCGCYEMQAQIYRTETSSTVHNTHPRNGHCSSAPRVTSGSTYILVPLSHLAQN
Type: cell-based
Procedure: EC50 of cyclic AMP production in CHO FSHR cells+EC20 FSH (Assay A)
2500 Cho-FSHR-LUC-1-1-43 cells were plated per well in 5 μl of phenol red free DMEM/F12+1% FBS. […] Cells were assayed by adding 100 μl of 2×EC20 FSH/IBMX in DMEM/F12+0.1% BSA) by Multidrop to 2 μl of test compound stamped in 384 well plates (compounds are diluted 1:50). […] The compound plate map was as follows: Column 1: 2 μl of DMSO; Column 2: 2 μl of DMSO; Columns 3-12 and 13-24: 2 μl of test compound, diluted 1:4 in 100% DMSO, or 2 μl of FSH, diluted 1:4 in DMEM/F12+0.1% BSA. The starting concentration for FSH was 50 nM (final concentration was 0.5 nM). […] 10 μl of mixed HTRF (CisBio #62AM4PEC) reagents were added per well and incubated at room temperature for 1 h. The plates were read on Envision using the cAMP HTRF—low volume 384 well protocol. […] Values given in percent (%) indicate the percental effect (response) at a certain concentration of agonist relative to the maximum response of the FSH standard.

EC50	Compound
1000 to 5000 nM	COc1cc2c(cc1-c1ccn(C)c1)-n1c(-c3cccs3)nc(C(=O)NC3(C)COC3)c1CC2 [Compound 98, 7-Methoxy-8-(1-methyl-1H-pyrrol-3-yl)-1-thiophen-2-yl-4,5-dihydro-imidazo[1,5-a]quinoline-3-carboxylic acid (3-methyl-oxetan-3-yl)-amide]
100 to 1000 nM	COc1cc2c(cc1OC(C)C)-n1c(-c3sc(C)cc3C)nc(C(=O)N3CCOCC3(C)C)c1CC2 [Compound 99]
< 100 nM	COc1cc2c(cc1OC(C)C)-n1c(C3=CCCC3(C)C)nc(C(=O)N3CCOCC3(C)C)c1CC2 [Compound 100]
100 to 1000 nM	COc1cc2c(cc1OC(C)C)-n1c(-c3cc(Cl)ccc3F)nc(C(=O)N3CCOCC3(C)C)c1CC2 [Compound 101]
> 5000 nM	COc1ccc(-c2nc(C(=O)N3CCOCC3(C)C)c3n2-c2cc(OC(C)C)c(OC)cc2CC3)cc1Cl [Compound 103]
1000 to 5000 nM	COc1cc2c(cc1OC(C)C)-n1c(-c3cc(F)ccc3OC)nc(C(=O)N3CCOCC3(C)C)c1CC2 [Compound 104]
1000 to 5000 nM	COc1cc2c(cc1OC(C)C)-n1c(-c3cc(Cl)ccc3OC)nc(C(=O)N3CCOCC3(C)C)c1CC2 [Compound 105]
100 to 1000 nM	COc1cc2c(cc1OC(C)C)-n1c(-c3ccsc3C)nc(C(=O)N3CCOCC3(C)C)c1CC2 [Compound 106]
> 5000 nM	COc1cc2c(cc1OC(C)C)-n1c(-c3ccc(F)c(C#N)c3)nc(C(=O)N3CCOCC3(C)C)c1CC2 [Compound 107]
1000 to 5000 nM	COc1cc(-c2nc(C(=O)N3CCOCC3(C)C)c3n2-c2cc(OC(C)C)c(OC)cc2CC3)ccc1F [Compound 108]
100 to 1000 nM	COc1cc2c(cc1OC(C)C)-n1c(-c3ccc(Cl)c(F)c3)nc(C(=O)N3CCOCC3(C)C)c1CC2 [Compound 109]
1000 to 5000 nM	COc1cc2c(cc1OC(C)C)-n1c(-c3ccc(F)c(C(F)(F)F)c3)nc(C(=O)N3CCOCC3(C)C)c1CC2 [Compound 111]
1000 to 5000 nM	COc1cc2c(cc1OC(C)C)-n1c(-c3cccc(OC)c3F)nc(C(=O)N3CCOCC3(C)C)c1CC2 [Compound 112]
1000 to 5000 nM	COc1cc2c(cc1OC(C)C)-n1c(-c3cc(Cl)c(F)cc3F)nc(C(=O)N3CCOCC3(C)C)c1CC2 [Compound 113]
100 to 1000 nM	COc1cccc(-c2nc(C(=O)N3CCOCC3(C)C)c3n2-c2cc(OC(C)C)c(OC)cc2CC3)c1 [Compound 115]
100 to 1000 nM	COc1cc2c(cc1OC(C)C)-n1c(-c3ccc(F)c(Cl)c3)nc(C(=O)N3CCOCC3(C)C)c1CC2 [Compound 116]
1000 to 5000 nM	COc1cc2c(cc1OC(C)C)-n1c(-c3cc(Cl)ccc3OC(F)(F)F)nc(C(=O)N3CCOCC3(C)C)c1CC2 [Compound 117]
> 5000 nM	COc1ccc(-c2nc(C(=O)N3CCOCC3(C)C)c3n2-c2cc(OC(C)C)c(OC)cc2CC3)cc1F [Compound 118]
100 to 1000 nM	COc1cc2c(cc1OC(C)C)-n1c(-c3cc(C(F)(F)F)cc(C(F)(F)F)c3)nc(C(=O)N3CCOCC3(C)C)c1CC2 [Compound 119]
< 100 nM	COc1cc2c(cc1OC(C)C)-n1c(-c3cscc3C)nc(C(=O)N3CCOCC3(C)C)c1CC2 [Compound 120]
> 5000 nM	COc1cc2c(cc1OC(C)C)-n1c(-c3cccc4c3OCCO4)nc(C(=O)N3CCOCC3(C)C)c1CC2 [Compound 121]

EC50	Compound
100 to 1000 nM	COc1cc2c(cc1OC(C)C)-n1c(-c3cc(F)c(F)c(Cl)c3)nc(C(=O)N3CCOCC3(C)C)c1CC2 [Compound 122]
1000 to 5000 nM	COc1cc2c(cc1OC(C)C)-n1c(-c3ccc(F)c(Cl)c3F)nc(C(=O)N3CCOCC3(C)C)c1CC2 [Compound 123]
1000 to 5000 nM	COc1cc2c(cc1OC(C)C)-n1c(-c3ccc(C#N)c(C(F)(F)F)c3)nc(C(=O)N3CCOCC3(C)C)c1CC2 [Compound 124]
1000 to 5000 nM	COc1ccc(-c2nc(C(=O)N3CCOCC3(C)C)c3n2-c2cc(OC(C)C)c(OC)cc2CC3)cc1C [Compound 125]
100 to 1000 nM	COc1cc2c(cc1OC(C)C)-n1c(-c3ccc(C)c(F)c3)nc(C(=O)N3CCOCC3(C)C)c1CC2 [Compound 126]
100 to 1000 nM	COc1cc2c(cc1OC(C)C)-n1c(-c3cc(F)ccc3F)nc(C(=O)N3CCOCC3(C)C)c1CC2 [Compound 127]
1000 to 5000 nM	COc1ccc(-c2nc(C(=O)N3CCOCC3(C)C)c3n2-c2cc(OC(C)C)c(OC)cc2CC3)c(C)c1 [Compound 128]
100 to 1000 nM	COc1cc2c(cc1OC(C)C)-n1c(-c3cc(C)sc3C)nc(C(=O)N3CCOCC3(C)C)c1CC2 [Compound 129]
100 to 1000 nM	[2H]C([2H])([2H])N(C(=O)c1nc(-c2cccs2)n2c1CCc1cc(OC)c(-c3ccn(C)n3)cc1-2)C1(C)COC1 [Compound 130, 7-Methoxy-8-(1-methyl-1H-pyrazol-3-yl)-1-thiophen-2-yl-4,5-dihydro-imidazo[1,5-a]quinoline-3-carboxylic acid methyl-d3-(3-methyl-oxetan-3-yl)-amide]
> 5000 nM	COc1cc2c(cc1OC(C)C)-n1c(C3=CCNCC3)nc(C(=O)N3CCOCC3(C)C)c1CC2 [Compound 131]
100 to 1000 nM	COc1cc2c(cc1-c1n[nH]c(=O)o1)-n1c(-c3cccs3)nc(C(=O)N(C)C(C)(C)C)c1CC2 [Compound 132, 7-Methoxy-8-(5-oxo-4,5-dihydro-[1,3,4]oxadiazol-2-yl)-1-thiophen-2-yl-4,5-dihydro-imidazo[1,5-a]quinoline-3-carboxylic acid tert-butyl-methyl-amide]
< 100 nM	COc1cc2c(cc1-c1n[nH]c(=S)o1)-n1c(-c3cccs3)nc(C(=O)N(C)C(C)(C)C)c1CC2 [Compound 133, 7-Methoxy-1-thiophen-2-yl-8-(5-thioxo-4,5-dihydro-[1,3,4]oxadiazol-2-yl)-4,5-dihydro-imidazo[1,5-a]quinoline-3-carboxylic acid tert-butyl-methyl-amide]
1000 to 5000 nM	COc1cc2c(cc1OC(C)C)-n1c(-c3cccs3)nc(C(=O)NC3(CO)COC3)c1CO2 [Compound 137, 8-Isopropoxy-7-methoxy-1-thiophen-2-yl-4H-5-oxa-2,9b-diaza-cyclopenta[a]naphthalene-3-carboxylic acid (3-hydroxymethyl-oxetan-3-yl)-amide]
1000 to 5000 nM	COc1cc2c(cc1OC(C)C)-n1c(-c3cccs3)nc(C(=O)NC3(C)COC3)c1CO2 [Compound 138, 8-Isopropoxy-7-methoxy-1-thiophen-2-yl-4H-5-oxa-2,9b-diaza-cyclopenta[a]naphthalene-3-carboxylic acid (3-methyl-oxetan-3-yl)-amide]
100 to 1000 nM	COc1cc2c(cc1OC(C)C)-n1c(-c3cccc4c3OCO4)nc(C(=O)N3CCOCC3(C)C)c1CC2 [Compound 141]
100 to 1000 nM	COc1cc2c(cc1OC(C)C)-n1c(-c3cccc(Cl)c3Cl)nc(C(=O)N3CCOCC3(C)C)c1CC2 [Compound 142]
1000 to 5000 nM	COC(=O)c1nc(C(=O)N2CCOCC2(C)C)c2n1-c1cc(OC(C)C)c(OC)cc1CC2 [Compound 144, 3-(3,3-Dimethyl-morpholine-4-carbonyl)-8-isopropoxy-7-methoxy-4,5-dihydro-imidazo[1,5-a]quinoline-1-carboxylic acid methyl ester]
> 5000 nM	COc1cc2c(cc1OC(C)C)-n1c(C#N)nc(C(=O)N3CCOCC3(C)C)c1CC2 [Compound 145, 3-(3,3-Dimethyl-morpholine-4-carbonyl)-8-isopropoxy-7-methoxy-4,5-dihydro-imidazo[1,5-a]quinoline-1-carbonitrile]
100 to 1000 nM	COc1cc2c(cc1CC(C)C)-n1c(-c3sccc3C)nc(C(=O)N(C)C(C)(C)C)c1CC2 [Compound 146, 8-Isobutyl-7-methoxy-1-(3-methyl-thiophen-2-yl)-4,5-dihydro-imidazo[1,5-a]quinoline-3-carboxylic acid tert-butyl-methyl-amide]
100 to 1000 nM	COc1cc2c(cc1-c1ccn(C)n1)-n1c(-c3ccc(C)s3)nc(C(=O)N3CCOCC3(C)C)c1CC2 [Compound 147, (3,3-dimethylmorpholino)(7-methoxy-8-(1-methyl-1H-pyrazol-3-yl)-1-(5-methylthiophen-2-yl)-4,5-dihydroimidazo[1,5-a]quinolin-3-yl)methanone]
